Where “and” joins values, the source holds several entries; their conditions need not be identical. Equal entries are not always repeated. Where two headings read alike, the source gives them in different places.
Key:
Assay type in all cases: cell-based, Plasmodium falciparum
Dd2 parasites = experiment: P. falciparum proliferation assay (72 h, fluorescent DNA-intercalating dye)
Protocol: (§1) For experiments with all other parasites, the effects of compounds of interest on parasite proliferation was measured in 96-well plates containing serial dilutions of the compounds in culture medium, with a fluorescent DNA-intercalating dye used to detect surviving parasites. The assays were initiated with erythrocytes infected with predominantly ring-stage parasites, and the starting parasitaemia and haematocrit were both 1%.

[1] = tested on: Dd2-PfATP4^T418N,P990R parasites; experiment: as above
Protocol: as §1

Dd2-Polδ parasites = experiment: as above
Protocol: as §1

[2] = tested on: Dd2-Polδ-PfATP4^G358S parasites; experiment: as above
Protocol: as §1

[3] = tested on: HCR1 parasites (highly cipargamin-resistant clone 1); experiment: as above
Protocol: as §1

[4] = tested on: HCR2 parasites (highly cipargamin-resistant clone 2); experiment: as above
Protocol: as §1

NF54^CTL parasites = experiment: P. falciparum proliferation assay (72 h, flow cytometry, SYBR Green I/MitoTracker)
How it was run: (§2)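 Predominantly ring-stage cultures at 0.3% parasitaemia, 1% haematocrit, in medium with 10% O+ human serum; compound exposure 72 h, DMSO <0.5% (v/v). Live parasites counted by flow cytometry with SYBR Green I and 200 nM MitoTracker Deep Red. IC50/IC90 from linear interpolation of dose-response data.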

NF54^G358S-1 parasites = experiment: as above
How it was run: as §2

Compound: C[C@H]1[C@@H](O)O[C@@H]2O[C@@]3(C)CC[C@H]4[C@H](C)CC[C@@H]1[C@@]24OO3 [Dihydroartemisinin]
- IC50 (Dd2 parasites; Plasmodium falciparum, DD2, read-out: Dihydroartemisinin IC50 values, Dd2, MEAN): 2.17 nM
- IC50 (Dd2 parasites; Plasmodium falciparum, DD2, read-out: Dihydroartemisinin IC50 values, Dd2, single experiments): 1.79 nM
- IC50 (Dd2 parasites; read-out: Dihydroartemisinin IC50 values, Dd2, single experiments): 1.66 nM and 2.87 nM and 2.36 nM
- IC50 ([1]; Plasmodium falciparum, DD2, read-out: Dihydroartemisinin IC50 values, Dd2-PfATP4T418N,P990R, MEAN): 2.44 nM
- IC50 ([1]; Plasmodium falciparum, DD2, read-out: Dihydroartemisinin IC50 values, Dd2-PfATP4T418N,P990R, single experiments): 2.1 nM
- IC50 ([1]; read-out: Dihydroartemisinin IC50 values, Dd2-PfATP4T418N,P990R, single experiments): 2.01 nM and 2.76 nM and 2.9 nM
- IC50 (Dd2-Polδ parasites; Plasmodium falciparum, DD2, read-out: Dihydroartemisinin IC50 values, Dd2-Polδ, MEAN): 2.15 nM
- IC50 (Dd2-Polδ parasites; Plasmodium falciparum, DD2, read-out: Dihydroartemisinin IC50 values, Dd2-Polδ, single experiments): 2.08 nM
- IC50 (Dd2-Polδ parasites; read-out: Dihydroartemisinin IC50 values, Dd2-Polδ, single experiments): 2.37 nM and 1.58 nM and 2.55 nM
- IC50 ([2]; Plasmodium falciparum, DD2, read-out: Dihydroartemisinin IC50 values, Dd2-Polδ-PfATP4G358S, MEAN): 2.58 nM
- IC50 ([2]; Plasmodium falciparum, DD2, read-out: Dihydroartemisinin IC50 values, Dd2-Polδ-PfATP4G358S, single experiments): 2.3 nM
- IC50 ([2]; read-out: Dihydroartemisinin IC50 values, Dd2-Polδ-PfATP4G358S, single experiments): 2.08 nM and 3.3 nM and 2.66 nM
- IC50 ([3]; Plasmodium falciparum, read-out: Dihydroartemisinin IC50 values, HCR1, MEAN): 1.55 nM
- IC50 ([3]; read-out: Dihydroartemisinin IC50 values, HCR1, single experiments): 1.37 nM and 2.01 nM and 1.76 nM
- IC50 ([4]; Plasmodium falciparum, read-out: Dihydroartemisinin IC50 values, HCR2, MEAN): 1.51 nM
- IC50 ([4]; Plasmodium falciparum, read-out: Dihydroartemisinin IC50 values, HCR2, single experiments): 1.46 nM
- IC50 ([4]; read-out: Dihydroartemisinin IC50 values, HCR2, single experiments): 1.62 nM and 1.77 nM and 1.19 nM
- FC (IC50) (NF54^CTL parasites; NF54CTL compared to NF54WT): 1.1 fold
- FC (IC90) (NF54^CTL parasites; NF54CTL compared to NF54WT): 1.2 fold
- IC90 (NF54^CTL parasites; NF54CTL parasites, individual experiments, read-out: IC90 values): 3 nM and 2.45 nM and 2.56 nM
- IC90 (NF54^CTL parasites; Plasmodium falciparum, NF54, NF54CTL parasites, individual experiments, read-out: IC90 values): 2.88 nM
- IC90 (NF54^CTL parasites; Plasmodium falciparum, NF54, NF54CTL parasites, mean of the experiments, read-out: IC90 values, MEAN): 2.7 nM
- IC50 (NF54^CTL parasites; Plasmodium falciparum, NF54, NF54CTL, 10% human serum, read-out: IC50 ± SEM): 0.9 ± 0.1 nM
- IC50 (NF54^CTL parasites; Plasmodium falciparum, NF54, read-out: Dihydroartemisinin IC50 values, NF54CTL, MEAN): 0.89 nM
- IC50 (NF54^CTL parasites; read-out: Dihydroartemisinin IC50 values, NF54CTL, single experiments): 0.98 nM and 0.8 nM and 0.7 nM
- FC (IC50) (NF54^G358S-1 parasites; NF54G358S-1 compared to NF54WT): 1.1 fold
- FC (IC90) (NF54^G358S-1 parasites; NF54G358S-1 compared to NF54WT): 1.1 fold
- IC90 (NF54^G358S-1 parasites; NF54G358S-1 parasites, individual experiments, read-out: IC90 values): 2.78 nM and 2.34 nM and 2.64 nM
- IC90 (NF54^G358S-1 parasites; Plasmodium falciparum, NF54, NF54G358S-1 parasites, individual experiments, read-out: IC90 values): 2.68 nM
- IC90 (NF54^G358S-1 parasites; Plasmodium falciparum, NF54, NF54G358S-1 parasites, mean of the experiments, read-out: IC90 values, MEAN): 2.6 nM
- IC50 (NF54^G358S-1 parasites; Plasmodium falciparum, NF54, read-out: Dihydroartemisinin IC50 values, NF54G358S-1, MEAN): 0.9 nM
- IC50 (NF54^G358S-1 parasites; read-out: Dihydroartemisinin IC50 values, NF54G358S-1, single experiments): 0.76 nM and 0.77 nM
